# Source: PubChem BioAssay AID2060505 (Molecular Pharmacology Branch, DTP, NCI, 2025)
# Tested on: 633275-114-R-J1-PDC complex spheroids, viability
# Assay: Anticancer human tumor 633275-114-R-J1-PDC patient-derived endometrial adenocarcinoma cell line growth inhibition [GQUAD]
# Details: for IC50: curve of first compound; for viability, T/C: stronger effect = lower value
# In short: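 Multi-cell-type spheroids of tumor cells with HUVEC and mesenchymal stem cells, treated with drug combinations. Concentrations descend in half-log steps from near clinical Cmax, or from 10 microM where Cmax is unknown; viability read-out.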
# [1] = second compound 0.0316 µM, first compound 0.0316 µM
# [2] = second compound 0.0316 µM, first compound 0.1 µM
# [3] = second compound 0.0316 µM, first compound 0.316 µM
# [4] = second compound 0.0316 µM, first compound 1 µM
# [5] = second compound 0.0316 µM, first compound 3.16 µM
# [6] = second compound 0.0316 µM, first compound 10 µM
# [7] = second compound 0.1 µM, first compound 0.0316 µM
# [8] = second compound 0.1 µM, first compound 0.1 µM
# [9] = second compound 0.1 µM, first compound 0.316 µM
# [10] = second compound 0.1 µM, first compound 1 µM
# [11] = second compound 0.1 µM, first compound 3.16 µM
# [12] = second compound 0.1 µM, first compound 10 µM
# [13] = second compound 0.316 µM, first compound 0.0316 µM
# [14] = second compound 0.316 µM, first compound 0.1 µM
# [15] = second compound 0.316 µM, first compound 0.316 µM
# [16] = second compound 0.316 µM, first compound 1 µM
# [17] = second compound 0.316 µM, first compound 3.16 µM
# [18] = second compound 0.316 µM, first compound 10 µM
# [19] = second compound 1 µM, first compound 0.0316 µM
# [20] = second compound 1 µM, first compound 0.1 µM
# [21] = second compound 1 µM, first compound 0.316 µM
# [22] = second compound 1 µM, first compound 1 µM
# [23] = second compound 1 µM, first compound 3.16 µM
# [24] = second compound 1 µM, first compound 10 µM
# [25] = second compound 3.16 µM, first compound 0.0316 µM
# [26] = second compound 3.16 µM, first compound 0.1 µM
# [27] = second compound 3.16 µM, first compound 0.316 µM
# [28] = second compound 3.16 µM, first compound 1 µM
# [29] = second compound 3.16 µM, first compound 3.16 µM
# [30] = second compound 3.16 µM, first compound 10 µM
# [31] = second compound 10 µM, first compound 0.0316 µM
# [32] = second compound 10 µM, first compound 0.1 µM
# [33] = second compound 10 µM, first compound 0.316 µM
# [34] = second compound 10 µM, first compound 1 µM
# [35] = second compound 10 µM, first compound 3.16 µM
# [36] = second compound 10 µM, first compound 10 µM
# 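Note: spheroids exposed to the agents for seven days.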
# 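Throughout, for viability, T/C: percent of DMSO vehicle control viability which is 100%.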
structure (smiles),measurement,setting,value
C#Cc1c(F)ccc2cc(O)cc(-c3ncc4c(N5CC6CCC(C5)N6)nc(OCC56CCCN5CC(F)C6)nc4c3F)c12 (stereo unspecified) + CN(C)c1ccc(Nc2c3ccc(NC(=O)CCN4CCCC4)cc3nc3cc(NC(=O)CCN4CCCC4)ccc23)cc1,IC50,second compound 0.0316 µM,> 10 µM
same,IC50,second compound 0.1 µM,> 10 µM
same,IC50,second compound 0.316 µM,> 10 µM
same,IC50,second compound 1 µM,> 10 µM
same,IC50,second compound 3.16 µM,4.36 µM
same,IC50,second compound 10 µM,< 0.0316 µM
same,"viability, T/C",[1],108%
same,"viability, T/C",[2],90.5%
same,"viability, T/C",[3],86.9%
same,"viability, T/C",[4],91.9%
same,"viability, T/C",[5],78%
same,"viability, T/C",[6],66%
same,"viability, T/C",[7],101%
same,"viability, T/C",[8],97.8%
same,"viability, T/C",[9],91.5%
same,"viability, T/C",[10],96.7%
same,"viability, T/C",[11],81.5%
same,"viability, T/C",[12],65.3%
same,"viability, T/C",[13],94.6%
same,"viability, T/C",[14],101%
same,"viability, T/C",[15],86.8%
same,"viability, T/C",[16],82.3%
same,"viability, T/C",[17],71.9%
same,"viability, T/C",[18],68.1%
same,"viability, T/C",[19],97.5%
same,"viability, T/C",[20],96.5%
same,"viability, T/C",[21],87.2%
same,"viability, T/C",[22],85.9%
same,"viability, T/C",[23],70.6%
same,"viability, T/C",[24],54.9%
same,"viability, T/C",[25],81.9%
same,"viability, T/C",[26],86.3%
same,"viability, T/C",[27],81.6%
same,"viability, T/C",[28],66.3%
same,"viability, T/C",[29],62%
same,"viability, T/C",[30],28.1%
same,"viability, T/C",[31],32.5%
same,"viability, T/C",[32],29.2%
same,"viability, T/C",[33],23.3%
same,"viability, T/C",[34],23.6%
same,"viability, T/C",[35],16.1%
same,"viability, T/C",[36],5.22%
CC(=O)O[C@H]1C(=O)[C@@]2(C)[C@H]([C@H](OC(=O)c3ccccc3)[C@]3(O)C[C@H](OC(=O)[C@H](O)[C@@H](NC(=O)c4ccccc4)c4ccccc4)C(C)=C1C3(C)C)[C@]1(OC(C)=O)CO[C@@H]1C[C@@H]2O + CN(C)c1ccc(Nc2c3ccc(NC(=O)CCN4CCCC4)cc3nc3cc(NC(=O)CCN4CCCC4)ccc23)cc1,IC50,second compound 0.0316 µM,< 0.0316 µM
same,IC50,second compound 0.1 µM,< 0.0316 µM
same,IC50,second compound 0.316 µM,< 0.0316 µM
same,IC50,second compound 1 µM,< 0.0316 µM
same,IC50,second compound 3.16 µM,< 0.0316 µM
same,IC50,second compound 10 µM,< 0.0316 µM
same,"viability, T/C",[1],48.9%
same,"viability, T/C",[2],26.1%
same,"viability, T/C",[3],18.4%
same,"viability, T/C",[4],22.6%
same,"viability, T/C",[5],20.9%
same,"viability, T/C",[6],22.7%
same,"viability, T/C",[7],48.3%
same,"viability, T/C",[8],27.3%
same,"viability, T/C",[9],21.6%
same,"viability, T/C",[10],18.9%
same,"viability, T/C",[11],20.5%
same,"viability, T/C",[12],23.5%
same,"viability, T/C",[13],46.4%
same,"viability, T/C",[14],23.6%
same,"viability, T/C",[15],21.2%
same,"viability, T/C",[16],19.1%
same,"viability, T/C",[17],20.7%
same,"viability, T/C",[18],20.4%
same,"viability, T/C",[19],45.9%
same,"viability, T/C",[20],25.5%
same,"viability, T/C",[21],17.5%
same,"viability, T/C",[22],18.8%
same,"viability, T/C",[23],22.4%
same,"viability, T/C",[24],20.8%
same,"viability, T/C",[25],41.4%
same,"viability, T/C",[26],22.8%
same,"viability, T/C",[27],20.4%
same,"viability, T/C",[28],21.3%
same,"viability, T/C",[29],19.6%
same,"viability, T/C",[30],19.8%
same,"viability, T/C",[31],23.8%
same,"viability, T/C",[32],15.3%
same,"viability, T/C",[33],13.8%
same,"viability, T/C",[34],11.8%
same,"viability, T/C",[35],15.2%
same,"viability, T/C",[36],12.9%
CCCS(=O)(=O)Nc1ccc(F)c(C(=O)c2c[nH]c3ncc(-c4ccc(Cl)cc4)cc23)c1F + CN(C)c1ccc(Nc2c3ccc(NC(=O)CCN4CCCC4)cc3nc3cc(NC(=O)CCN4CCCC4)ccc23)cc1,IC50,second compound 0.0316 µM,8.89 µM
same,IC50,second compound 0.1 µM,9.28 µM
same,IC50,second compound 0.316 µM,9.53 µM
same,IC50,second compound 1 µM,8.32 µM
same,IC50,second compound 3.16 µM,5.04 µM
same,IC50,second compound 10 µM,< 0.0316 µM
same,"viability, T/C",[1],93.3%
same,"viability, T/C",[2],97.6%
same,"viability, T/C",[3],98.5%
same,"viability, T/C",[4],100%
same,"viability, T/C",[5],91%
same,"viability, T/C",[6],45.2%
same,"viability, T/C",[7],90.6%
same,"viability, T/C",[8],109%
same,"viability, T/C",[9],103%
same,"viability, T/C",[10],103%
same,"viability, T/C",[11],91.4%
same,"viability, T/C",[12],46.8%
same,"viability, T/C",[13],100%
same,"viability, T/C",[14],108%
same,"viability, T/C",[15],103%
same,"viability, T/C",[16],111%
same,"viability, T/C",[17],85.8%
same,"viability, T/C",[18],48.4%
same,"viability, T/C",[19],97.1%
same,"viability, T/C",[20],106%
same,"viability, T/C",[21],103%
same,"viability, T/C",[22],99.1%
same,"viability, T/C",[23],83.9%
same,"viability, T/C",[24],43.4%
same,"viability, T/C",[25],92.5%
same,"viability, T/C",[26],89%
same,"viability, T/C",[27],94.8%
same,"viability, T/C",[28],94.3%
same,"viability, T/C",[29],69%
same,"viability, T/C",[30],22.3%
same,"viability, T/C",[31],33.7%
same,"viability, T/C",[32],31.8%
same,"viability, T/C",[33],31.6%
same,"viability, T/C",[34],33.6%
same,"viability, T/C",[35],25.1%
same,"viability, T/C",[36],7.58%
